Experimental data from US20090192192A1, “INHIBITORS OF BIOFILM FORMATION OF GRAM-POSITIVE AND GRAM-NEGATIVE BACTERIA” (priority 2007, published 2009).
Each block holds one molecule with its values, some of them ahead of it.

Assays:
Format in all cases: cell-based
[1] = system: Staphylococcus epidermidis RP62A; assay: MBEC assay, biofilm formation of S. epidermidis RP62A; details: read-out: S. epidermidis RP62A log R (log reduction); for log reduction at 10 µM: compound concentration 10 μM; for log reduction at 100 µM: compound concentration 100 μM
Description: (§1) The compound to be tested was dissolved in DMSO to obtain a concentration that was 100 times that of the final concentration required (1 mM for the 10 μM assay and 10 mM for the 100 μM assay). 1.5 μL of the above solution was placed into each well of a 96 well plate (final volume in each well=150 μL, final DMSO concentration of 1% (v/v)).
(§2) To grow the organism and form a biofilm, a cryogenic stock of the test organism (at −70° C.) was used. A first sub-culture was streaked out onto TSA (tryptic soy agar), upon which the plate was incubated at 35±2° C. for 24 hours and stored wrapped in parafilm at 4° C. afterwards. From this first sub-culture, a second sub-culture was streaked out onto TSA. The plate was incubated at 35±2° C. for 24 hours. The second sub-culture was used within 24 hours starting from the time it was first removed from incubation. Using the second sub-culture an inoculum in 3 mL sterile water that matches a 0.5 McFarland Standard (1.5×10^8 cells per mL) was created in a glass test tube using a sterile cotton swab. 2.2 mL of this solution was diluted in 22 mL 100% TSB (tryptic soy broth) medium to a cell density of approximately 6.0×10^5 cells per mL. The diluted organism was inverted 3-5 times to achieve uniform mixing of the organism. One sample (100 μl) of the diluted organism was used for an inoculum check by serially diluting and spot plating on TSA.
(§3) To prepare a challenge plate, […] of the diluted organism was added to each well of a 96 well plate except the sterility control wells. The test compounds were added to the wells to make up final concentrations of 10 μM and […] (1.5 μL/well) in the designated location in the test plate. 128.5 μL of 100% universal neutralizer (1% Tween 80 in Cation Adjusted Mueller Hinton Broth, CAMHB) was placed in each of the wells. 130 μL of media was added to the growth control wells. 128.5 μL of media+1.5 μL of DMSO were added to a second set of growth control wells. 150 μL of media was added to the sterility controls. Each sample was run in triplicate. The plate was covered by a lid with a peg per well and wrapped in parafilm and placed on a shaker in a humidified incubator (GeneVac) at 35±+2° C. for 24 hours set at 110 rpm.
(§4) Rinse plate(s) of 0.9% saline (200 μL per well) were prepared in a sterile 96 well microtitre plate. Lid-associated pegs were rinsed in 0.9% saline for approximately 1-2 minutes. The peg lid was transferred to the recovery media (1.0% Tween 80 in CAMHB) then sonicated for 30 minutes to dislodge surviving biofilm. Following sonication, 100 μL from each well of the 96 well plate was placed into the first 12 wells of the first row of a 96 well microtiter plate. 180 μl of 0.9% sterile saline was placed in the remaining rows. A serial dilution (10^0-10^7) was prepared by moving 20 μl down each of the 8 rows. 20 μl from each well was removed and spot plated on a prepared TSA. In the remaining recovery plate, 100 μl of fresh growth media (1.0% Tween 80 in CAMHB) was placed in each well to replace the amount removed. The recovery plate was covered with a regular lid and incubated at 35±2° C. for 24 hours and read visually to confirm antimicrobial activity of the test compounds.
(§5) The compounds of the present disclosure have been tested regarding their efficiency to inhibit biofilm formation of Staphylococcus aureus U of C#18 (MRSA), Staphylococcus aureus 456 (MRSA), Staphylococcus epidermidis RP62A, and Pseudomonas aeruginosa PAO1.

[2] = system: Pseudomonas aeruginosa PAO1; assay: MBEC assay, biofilm formation of P. aeruginosa PAO1; details: for IC50: biofilm formation, read-out: P. aeruginosa PAO1 inhibitory concentration IC50; for inhibition at 100 µM: compound concentration 100 μM
In short: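 Peg-lid biofilms were grown 24 h at 35±2 °C, 110 rpm, from inoculum diluted to ~6.0×10^5 cells per mL in TSB, with compound at 10 μM or 100 μM final (1% DMSO) in 1% Tween 80/CAMHB. Pegs were rinsed, then sonicated 30 min into recovery medium; survivors were spot-plated, and recovery plates were read visually after 24 h; triplicates.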

[3] = system: Staphylococcus aureus 456 (MRSA); assay: MBEC assay, biofilm formation of S. aureus 456 (MRSA); details: read-out: S. aureus 456 (MRSA) log R (log reduction); for log reduction at 10 µM: compound concentration 10 μM; for log reduction at 100 µM: compound concentration 100 μM
Description: as §1, §2, §3, §4, §5

[4] = system: Staphylococcus aureus U of C#18 (MRSA); assay: MBEC assay, biofilm formation of S. aureus U of C #18 (MRSA); details: read-out: S. aureus U of C #18 (MRSA) log R (log reduction); for log reduction at 10 µM: compound concentration 10 μM; for log reduction at 100 µM: compound concentration 100 μM
Description: as §1, §2, §3, §4, §5

[5] = system: Staphylococcus aureus 398 (MRSA); assay: MBEC assay, biofilm formation of S. aureus 398 (MRSA)
Description: as §1
as §2, with “2.2 mL of this solution was diluted in 22 mL 100% TSB (tryptic soy broth) medium to a cell density of approximately 6.0×10^5 cells per mL. The diluted organism was inverted 3-5 times to achieve uniform mixing of the organism. One sample (100 μl) of the diluted organism was used for an inoculum check by serially diluting and spot plating on TSA.” left out
Rinse plate(s) of 0.9% saline (200 μL per well) were prepared in a sterile 96 well microtitre plate. […] The recovery plate was covered with a regular lid and incubated at 35±2° C. for 24 hours and read visually to confirm antimicrobial activity of the test compounds. […]

SMILES: CCCCCCCCCCCC(=O)N1CCCC(C(=O)N(CC)CC)C1 (centres unmarked) [Example 2, 1-dodecanoyl-N,N-diethylpiperidine-3-carboxamide]
- log reduction at 10 µM [1]: 0
- log reduction at 100 µM [1]: 3.5
- IC50 [2]: 12 µM
- log reduction at 10 µM [3]: 1.75
- log reduction at 100 µM [3]: 5.79
- log reduction at 10 µM [4]: 1.56
- log reduction at 100 µM [4]: 5.38

SMILES: CCCCCCCCCCNC(=O)N1CCCC(C(=O)N(CC)CC)C1 (centres unmarked) [Example 10, N^1-decyl-N^3,N^3-diethylpiperidine-1,3-dicarboxamide]
- S. aureus 398 (MRSA) log R (log reduction) ([5]; compound concentration 10 μM): 1.38
- S. aureus 398 (MRSA) log R (log reduction) ([5]; compound concentration 100 μM): 2.54
- log reduction at 10 µM [1]: 1.33
- log reduction at 100 µM [1]: 1.28
- inhibition at 100 µM [2]: 84%
- log reduction at 10 µM [4]: 1.17
- log reduction at 100 µM [4]: 0.91

SMILES: CCCCCCCCCCC(=O)N1CCCC(C(=O)N(CC)CC)C1 (centres unmarked) [Example 11, N,N-diethyl-1-undecanoylpiperidine-3-carboxamide]
- log reduction at 10 µM [1]: 0.77
- log reduction at 100 µM [1]: 1.48
- inhibition at 100 µM [2]: 75%
- log reduction at 10 µM [4]: 0.84
- log reduction at 100 µM [4]: 0.88

SMILES: CCCCCCCCCCCCC(=O)N1CCCC(C(=O)N(CC)CC)C1 (centres unmarked) [Example 12, N,N-diethyl-1-tridecanoylpiperidine-3-carboxamide]
- log reduction at 10 µM [1]: 1.42
- log reduction at 100 µM [1]: 2.47
- inhibition at 100 µM [2]: 85%
- log reduction at 10 µM [4]: 0.08
- log reduction at 100 µM [4]: 1.57

SMILES: CCCCCCCCCCCC(=O)N1CCC(C(=O)N2CCCC2)C1 (centres unmarked) [Example 149, 1-(3-(pyrrolidine-1-carbonyl)pyrrolidin-1-yl)dodecan-1-one]
- inhibition at 100 µM ([2]; class symbols): > 50%

SMILES: CCCCCCCCCCCC(=O)N1CCC(C(=O)N(C(C)C)C(C)C)C1 (centres unmarked) [Example 150, 1-dodecanoyl-N,N-diisopropylpyrrolidine-3-carboxamide]
- inhibition at 100 µM ([2]; class symbols): > 50%

SMILES: CCCCCCCCCCCC(=O)N1CCC(C(=O)Nc2ccccc2)C1 (centres unmarked) [Example 151, 1-dodecanoyl-N-phenylpyrrolidine-3-carboxamide]
- inhibition at 100 µM ([2]; class symbols): 20 to 50%

SMILES: CCCCCCCCCCCC(=O)N1CCC(C(=O)Nc2ccc(F)cc2)C1 (centres unmarked) [Example 152, 1-dodecanoyl-N-(4-fluorophenyl)pyrrolidine-3-carboxamide]
- inhibition at 100 µM ([2]; class symbols): 20 to 50%

SMILES: CCCCCCCCCCCC(=O)N1CCC(C(=O)Nc2cc(C)nn2C)C1 (centres unmarked) [Example 153, N-(1,3-dimethylpyrazol-5-yl)-1-dodecanoylpyrrolidine-3-carboxamide]
- inhibition at 100 µM ([2]; class symbols): > 50%

SMILES: CCCCCCCCCCCC(=O)N1CCC(C(=O)Nc2cc(C(C)(C)C)nn2C)C1 (centres unmarked) [Example 154, N-(3-tert-butyl-1-methylpyrazol-5-yl)-1-dodecanoylpyrrolidine-3-carboxamide]
- inhibition at 100 µM ([2]; class symbols): 20 to 50%

Now from value to molecule, other results behind:

- IC50 [2]: 27 µM
SMILES: CCCCCCCCCOCC(=O)Nc1ccnn1C [Example 1, N-(1-methylpyrazol-5-yl)-2-(nonyloxy)acetamide]
- log reduction at 10 µM [1]: 0
- log reduction at 100 µM [1]: 0
- log reduction at 10 µM [3]: 0.26
- log reduction at 100 µM [3]: 1.18
- log reduction at 10 µM [4]: 0.4
- log reduction at 100 µM [4]: 0.77

- IC50 [2]: 19 µM
SMILES: CCCCCCCCOCCC(=O)Nc1ccc(F)cc1C(F)(F)F [Example 3, N-(4-fluoro-2-(trifluoromethyl)phenyl)-3-(octyloxy)propanamide]
- log reduction at 10 µM [1]: 0
- log reduction at 100 µM [1]: 0
- log reduction at 10 µM [3]: 0.19
- log reduction at 100 µM [3]: 0.49
- log reduction at 10 µM [4]: 0.11
- log reduction at 100 µM [4]: 0.19

- IC50 [2]: 11 µM
SMILES: CCCCCCCCCC(=O)NC(=O)Nc1ccnn1CC [Example 4, N-(1-ethylpyrazol-5-ylcarbamoyl)decanamide]
- log reduction at 10 µM [1]: 0
- log reduction at 100 µM [1]: 0.78
- log reduction at 10 µM [3]: 1.14
- log reduction at 100 µM [3]: 3.28
- log reduction at 10 µM [4]: 1.13
- log reduction at 100 µM [4]: 1.49

- IC50 [2]: 24 µM
SMILES: CCCCCCCCOCCC(=O)N(C)c1ccc(F)cc1 [Example 5, N-(4-fluorophenyl)-N-methyl-3-(octyloxy)propanamide]
- log reduction at 10 µM [1]: 0
- log reduction at 100 µM [1]: 0
- log reduction at 10 µM [3]: 0.54
- log reduction at 100 µM [3]: 1.86
- log reduction at 10 µM [4]: -0.21
- log reduction at 100 µM [4]: 1.29

- IC50 [2]: 9 µM
SMILES: CCCCCCCCCCNC(=O)N(C)c1ccccc1 [Example 6, 3-decyl-1-methyl-1-phenylurea]
- log reduction at 10 µM [1]: 0
- log reduction at 100 µM [1]: 4.45
- log reduction at 10 µM [3]: 1.61
- log reduction at 100 µM [3]: 2.3
- log reduction at 10 µM [4]: 0.72
- log reduction at 100 µM [4]: 1.08

- IC50 [2]: 4 µM
SMILES: CCCCCCCCCCNC(=O)N(C)[C@@H](C)c1ccccc1 [Example 7, (S)-3-decyl-1-methyl-1-(1-phenylethyl)urea]
- log reduction at 10 µM [1]: 0
- log reduction at 100 µM [1]: 0
- log reduction at 10 µM [3]: 0.53
- log reduction at 100 µM [3]: 1.26
- log reduction at 10 µM [4]: 0.84
- log reduction at 100 µM [4]: 1.12

- IC50 [2]: 3 µM
SMILES: CCCCCCCCCCNC(=O)Nc1cc(C(C)(C)C)nn1C [Example 8, 1-(3-tert-butyl-1-methylpyrazol-5-yl)-3-decylurea]
- log reduction at 10 µM [1]: 0
- log reduction at 100 µM [1]: 0
- log reduction at 10 µM [3]: 0.42
- log reduction at 100 µM [3]: 1.04
- log reduction at 10 µM [4]: 0.26
- log reduction at 100 µM [4]: 0.8

- IC50 [2]: 12 µM
SMILES: CCCCCCCCCCCC(=O)Nc1cc(C(C)(C)C)nn1C [Example 9, N-(3-tert-butyl-1-methylpyrazol-5-yl)dodecanamide]
- log reduction at 10 µM [1]: 0
- log reduction at 100 µM [1]: 0
- log reduction at 10 µM [3]: 0.65
- log reduction at 100 µM [3]: 1.06
- log reduction at 10 µM [4]: 0.42
- log reduction at 100 µM [4]: 0.46
